From ChEMBL document CHEMBL4118044, “Manzamine Alkaloids from an Acanthostrongylophora sp. Sponge” (J Nat Prod, 2017)
Values after ≈ are worked out from the molar mass of the structure shown.

Assays:
[1] = molecular target: Sodium/potassium-transporting ATPase; experiment: Inhibition of KCl-stimulated Na+/K+-ATPase in human placental membrane vesicles measured for 60 secs by 3-O-methylfluorescein phosphate dye based fluorometric method; assay type: cell membranes, Placenta
[2] = system: K562; experiment: Cytotoxicity against human K562 cells by MTT assay; assay type: functional; details: read-out: LC50 (the source's name)
[3] = system: Escherichia coli; experiment: Antibacterial activity against Escherichia coli ATCC 35270 after 24 hrs by serial two fold dilution method; assay type: functional; details: ATCC 35270, 24 h
[4] = system: Bacillus spizizenii; experiment: Antibacterial activity against Bacillus subtilis ATCC 6633 after 24 hrs by serial two fold dilution method; assay type: functional; details: ATCC 6633, 24 h
[5] = system: A549; experiment: Cytotoxicity against human A549 cells by MTT assay; assay type: functional; details: read-out: LC50 (the source's name)
[6] = system: Kocuria rhizophila; experiment: Antibacterial activity against Kocuria rhizophila NBRC 12708 after 24 hrs by serial two fold dilution method; assay type: functional; details: NBRC 12708, 24 h
[7] = system: Proteus hauseri; experiment: Antibacterial activity against Proteus hauseri NBRC 3851 after 24 hrs by serial two fold dilution method; assay type: functional; details: NBRC 3851, 24 h
[8] = Inhibition of Magnaporthe grisea Guy 11 ICL; design: species or system Pyricularia grisea
[9] = system: Salmonella typhimurium; experiment: Antibacterial activity against Salmonella enterica ATCC 14028 after 24 hrs by serial two fold dilution method; assay type: functional, Salmonella enterica subsp. enterica serovar Typhimurium; details: ATCC 14028, 24 h
[10] = system: Staphylococcus aureus; experiment: Antibacterial activity against Staphylococcus aureus ATCC 6538p after 24 hrs by serial two fold dilution method; assay type: functional
[11] = molecular target: T1, Sortase A (Staphylococcus aureus, UniProt Q9S446); experiment: Inhibition of Staphylococcus aureus ATCC 6538p SortA expressed in Escherichia coli using Dabcyl-QALPETGEE-Edans as substrate after 1 hr by fluorescence spectrophotometric method
T1 sequence (Q9S446 whole entry): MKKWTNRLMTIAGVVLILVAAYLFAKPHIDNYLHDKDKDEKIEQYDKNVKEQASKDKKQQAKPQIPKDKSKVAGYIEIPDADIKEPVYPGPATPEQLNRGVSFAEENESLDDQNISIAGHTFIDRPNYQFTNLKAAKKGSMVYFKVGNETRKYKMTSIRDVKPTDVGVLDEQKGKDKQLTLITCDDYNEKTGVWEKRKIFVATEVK

With `O[C@]12C=C(c3nccc4c3[nH]c3ccccc34)[C@@H]3CCN(CCCC/C=C\CC1)C[C@@]31C[C@@H]3C=C[C@H]4CCC[N@+]43[C@H]12.[Cl-]` the IC50 [1] was > 150 µM, the CC50 [2] was 7.2 µM and the MIC [3] was 64 µg/mL. It also gave an MIC [4] of 32 µg/mL, a CC50 [5] of 4.6 µM and an MIC [6] of 16 µg/mL. For the same compound, the MIC [7] was 8 µg/mL, the IC50 [8] was > 150 µM and the MIC [9] was 16 µg/mL. The MIC [10] was 8 µg/mL.

In the case of `Cl.[O-][n+]1ccc2c([nH]c3ccccc32)c1C1=C[C@@]2(O)CC/C=C\CCCCN3CC[C@@H]1[C@]1(CC/C=C\CCCCN[C@H]12)C3`, the IC50 [1] is reported as > 150 µM, the CC50 [2] is reported as 8.1 µM and the MIC [3] is reported as > 100 µg/mL. The MIC [4] was > 100 µg/mL, the CC50 [5] was 4.7 µM and the MIC [6] was > 100 µg/mL. The MIC [7] was > 100 µg/mL, the IC50 [8] was 26 µM and the MIC [9] was 32 µg/mL. It also gave an IC50 [11] of 81 µM and an MIC [10] of 32 µg/mL.

With `O[C@]12C=C(c3nccc4c3[nH]c3ccccc34)[C@@H]3CCN(CCCC/C=C\CC1)C[C@@]31C[C@@H]3/C=C\CCCCN3[C@H]12` [MANZAMINE A] the IC50 [1] was > 150 µM, the CC50 [2] was 11 µM and the MIC [3] was > 100 µg/mL. It also gave an MIC [4] of 50 µg/mL (≈ 91.1 µM), a CC50 [5] of 8.3 µM and an MIC [6] of 50 µg/mL (≈ 91.1 µM). For the same compound, the MIC [7] was > 100 µg/mL, the IC50 [8] was 140 µM and the MIC [9] was 3.1 µg/mL (≈ 5.65 µM). The IC50 [11] was > 150 µM and the MIC [10] was > 100 µg/mL.

With `Cl.[O-][N+]1=C(C2=C[C@@]3(O)CC/C=C\CCCCN4CC[C@@H]2[C@]2(CC/C=C\CCCCN[C@H]23)C4)c2[nH]c3ccccc3c2CC1` the IC50 [1] was 110 µM, the CC50 [2] was 9.5 µM and the MIC [3] was > 100 µg/mL. For the same compound, the MIC [4] was 64 µg/mL, the CC50 [5] was 5.7 µM and the MIC [6] was 64 µg/mL. The MIC [7] was 32 µg/mL, the IC50 [8] was > 150 µM and the MIC [9] was > 100 µg/mL. For the same compound, the IC50 [11] was > 150 µM and the MIC [10] was 32 µg/mL.

In the case of `O[C@H]1/C=C\[C@H]2C[C@]34CN5CCCC/C=C\CC[C@](O)(C=C(c6nccc7c6[nH]c6ccccc67)[C@@H]3CC5)[C@@H]4N2CCC1`, the IC50 [1] is reported as > 150 µM, the CC50 [2] is reported as 7.2 µM and the MIC [3] is reported as > 100 µg/mL. The MIC [4] was 6.3 µg/mL (≈ 11.2 µM), the CC50 [5] was 5.8 µM and the MIC [6] was 6.3 µg/mL (≈ 11.2 µM). It also gave an MIC [7] of 13 µg/mL (≈ 23 µM), an IC50 [8] of 140 µM and an MIC [9] of 1.6 µg/mL (≈ 2.83 µM). For the same compound, the IC50 [11] was > 150 µM and the MIC [10] was 25 µg/mL (≈ 44.3 µM).

For `C1=C\CC[C@]23O[C@H]2[C@@H](c2nccc4c2[nH]c2ccccc24)[C@@H]2CCN(CCCC/1)C[C@@]21CCCCCCCCN[C@H]13`, the IC50 [1] was > 150 µM, the CC50 [2] was 9.6 µM and the MIC [3] was > 100 µg/mL. The MIC [4] was 100 µg/mL (≈ 181 µM), the CC50 [5] was 6.5 µM and the MIC [6] was 100 µg/mL (≈ 181 µM). The MIC [7] was > 100 µg/mL, the IC50 [8] was > 150 µM and the MIC [9] was 50 µg/mL (≈ 90.4 µM). The IC50 [11] was > 150 µM and the MIC [10] was > 100 µg/mL.

`O=C(O)CC[N+](=O)[O-]` gave an IC50 [8] of 19 µM.

With `O[C@@H]1CCCN2[C@@H](CC1)C[C@]13CN4CCCC/C=C\CC[C@](O)(C=C(c5nccc6c5[nH]c5ccccc56)[C@@H]1CC4)[C@H]23` [32,33-DIHYDRO-31-HYDROXYMANZAMINE A] the IC50 [1] was > 150 µM, the CC50 [2] was 8.4 µM and the MIC [3] was > 100 µg/mL. It also gave an MIC [4] of 25 µg/mL (≈ 44.1 µM), a CC50 [5] of 8.2 µM and an MIC [6] of 13 µg/mL (≈ 22.9 µM). It also gave an MIC [7] of 100 µg/mL (≈ 176 µM), an IC50 [8] of 68 µM and an MIC [9] of 1.6 µg/mL (≈ 2.82 µM). For the same compound, the IC50 [11] was > 150 µM and the MIC [10] was 50 µg/mL (≈ 88.2 µM).

`CC1(C)S[C@@H]2[C@H](NC(=O)[C@H](N)c3ccccc3)C(=O)N2[C@H]1C(=O)O` [AMPICILLIN] gave an MIC [3] of 6.3 µg/mL (≈ 18 µM), an MIC [4] of 0.78 µg/mL (≈ 2.23 µM) and an MIC [6] of 0.39 µg/mL (≈ 1.12 µM). For the same compound, the MIC [7] was 1.6 µg/mL (≈ 4.58 µM), the MIC [9] was 0.39 µg/mL (≈ 1.12 µM) and the MIC [10] was 0.39 µg/mL (≈ 1.12 µM).

Compound `COc1cccc2c1C(=O)c1c(O)c3c(c(O)c1C2=O)C[C@@](O)(C(=O)CO)C[C@@H]3O[C@H]1C[C@H](N)[C@H](O)[C@H](C)O1` [DOXORUBICIN] has a CC50 [2] of 1.1 µM and a CC50 [5] of 0.92 µM.

For `Cn1cncc1C(=O)c1nccc2c1[nH]c1ccccc12`, the IC50 [1] was > 150 µM, the CC50 [2] was 13 µM and the MIC [3] was > 100 µg/mL. The MIC [4] was 50 µg/mL (≈ 181 µM), the CC50 [5] was 12 µM and the MIC [6] was 25 µg/mL (≈ 90.5 µM). The MIC [7] was > 100 µg/mL, the IC50 [8] was > 150 µM and the MIC [9] was 25 µg/mL (≈ 90.5 µM). The IC50 [11] was > 150 µM and the MIC [10] was > 100 µg/mL.

In the case of `O[C@@H]1CC[C@@]23C[C@]45CN6CCCC/C=C\CC[C@](O)(C=C(c7nccc8c7[nH]c7ccccc78)[C@@H]4CC6)[C@@H]5N2CC[C@@H]1O[C@@]12CC[C@@H](O3)[C@@H](O)CCN1[C@@H]1[C@]3(CN4CCCC/C=C\CC[C@]1(O)C=C(c1nccc5c1[nH]c1ccccc15)[C@@H]3CC4)C2`, the IC50 [1] is reported as > 150 µM, the CC50 [2] is reported as 12 µM and the MIC [3] is reported as > 100 µg/mL. For the same compound, the MIC [4] was 1.6 µg/mL (≈ 1.38 µM), the CC50 [5] was 13 µM and the MIC [6] was 1.6 µg/mL (≈ 1.38 µM). The MIC [7] was > 100 µg/mL, the IC50 [8] was 27 µM and the MIC [9] was 0.78 µg/mL (≈ 0.672 µM). The IC50 [11] was > 150 µM and the MIC [10] was > 100 µg/mL.

For `Cn1cncc1C(=O)C1=NCCc2c1[nH]c1ccccc21`, the IC50 [1] was > 150 µM, the CC50 [2] was 9.2 µM and the MIC [3] was > 100 µg/mL. For the same compound, the MIC [4] was 25 µg/mL (≈ 89.8 µM), the CC50 [5] was 9.9 µM and the MIC [6] was 25 µg/mL (≈ 89.8 µM). It also gave an MIC [7] of 50 µg/mL (≈ 180 µM), an IC50 [8] of 75 µM and an MIC [9] of 6.3 µg/mL (≈ 22.6 µM). For the same compound, the IC50 [11] was > 150 µM and the MIC [10] was 50 µg/mL (≈ 180 µM).
